Test results taken from patent US8613931B2, “Compounds for treating beta-amyloidoses” (Affiris AG, priority 2008, dated 2013).
Square brackets hold non-standard residues; d marks the D form. Ends that are not written are not given here. pGlu = O=C1CC[C@@H](C(=O)O)N1

Tests used:
[1] = tested on: p4373; assay: Mimotope vaccination, serum reactivity against p4373; format: in vivo, C57/bl6 mice; conditions: sera of mice s.c. immunized with 30 μg peptide coupled to KLH, alum
Experimental: (§1) Inhibiting as well as non-inhibiting peptides were coupled to KLH and injected into mice (wildtype C57/Bl6 mice; subcutaneous injection into the flank) together with an appropriate adjuvant (aluminium hydroxide). Animals were vaccinated 3-6 times in biweekly intervals and sera were taken biweekly as well. Titers to injected peptides, as well as to an irrelevant peptide were determined with every serum. Furthermore, titers against the recombinant human Aβ protein, and against original peptides were determined respectively. In general sera were analysed by reaction against peptides coupled to Bovine Serum Albumin (BSA) and recombinant full length proteins which were immobilised on ELISA plates. Titers were determined using anti mouse IgG specific antibodies. For detailed results see FIGS. 6, 7 and 8 respectively.
(§2) Female C57/bl6 mice, 5-6 mice per group, were subcutaneously immunized with 30 μg peptide coupled to KLH. Control groups were administered original epitope-KLH conjugates respectively. As adjuvant alum was used (always 1 mg per mouse). […] The in vitro ELISA assay to determine the antibody titer was performed with sera of single mice after each vaccination in a two week interval (see FIGS. 6 and 7 respectively). The wells of the ELISA plate were coated with mimotope-BSA conjugate and an irrelevant peptide-BSA conjugate (negative control). […]

[2] = tested on: p4371; assay: Mimotope vaccination, serum reactivity against p4371; format: in vivo, C57/bl6 mice; conditions: sera of mice s.c. immunized with 30 μg peptide coupled to KLH, alum
Experimental: as §1, §2

[3] = tested on: monoclonal antibody MV-003; assay: In vitro binding assay (ELISA), parental antibody MV-003; set-up: species or system BalbC mice; conditions: peptide-BSA on ELISA plate; OD halfmax, dilution factor 1:X of parental AB MV-003
Experimental: 1. In vitro binding assay (ELISA)
Peptides derived from Phage Display as well as variants thereof were coupled to BSA and bound to ELISA plates (1 μM; as indicated in the respective figures) and subsequently incubated with the monoclonal antibody that was used for the screening procedure to analyse binding capacity of identified peptides.

[4] = tested on: monoclonal antibody MV-003; assay: In vitro inhibition assay (ELISA), MV-003 binding to original epitope; set-up: species or system BalbC mice; conditions: OD at 10 μg peptide compared to original peptide
Experimental: 2. In vitro inhibition assay (ELISA)
Different amounts of peptides (concentrations ranging from 10 μg to 0.08 μg; serial dilutions), derived from Phage Display were incubated with the monoclonal antibody that was used for the screening procedure. Peptides diminishing subsequent binding of the antibody to the original epitope coated on ELISA plates were considered as inhibiting in this assay.

Substance: EFRHDS-C (EFRHDSC) [p4371]
- immune response against p4373 [1]: mount relevant titers

Substance: p(E)FRHDS-C ([pGlu]FRHDSC) [p4373]
- immune response against p4371 [2]: mount relevant titers

Substance: IRWDTSLC [p4728]
- Binding Capacity [3]: 3 (strong binding :>60000)
- Inhibition Capacity [4]: 2 (strong inhibition (as original epitope; OD of 10 μg peptide below 5 times of original peptide))
